For one assay, the system named is U2AF1-S34F mutant cells. Nature of the assay: Nuclear β-catenin confocal microscopy in U2AF1-S34F mutant TF-1 cells. The conditions noted are these: 24 hours treatment. The format is cell-based.
The subject of assay [1] is SF3B1-K700E mutant-expressing BM cells. Put plainly: ASC staining flow cytometry (inflammasome formation) in SF3B1-K700E BM cells. Format: cell-based, mouse. The following applies: 24 hours treatment. How it is done: Staining was carried out as described ([…], et al. J Immunol. 2015 194(1):455-62). Briefly, cell pellets were resuspended in 1 mL of prewarmed BD Permeabilization Buffer III, and incubated on ice for 30 minutes. Cells were washed 2× with staining buffer. Following washing, cells were stained with rabbit-anti-ASC primary antibodies at a 1:1500 dilution and incubated for 90 minutes. Cells were washed, stained with secondary antibodies at a dilution of 1:1500, and incubated for 45 minutes. Cells were washed, and sample acquisitions were carried out using a BD LSR II flow cytometer and FACSDiva software.
A general note: A flow cytometer gives signals particle by particle.

For assay [2], the system named is SF3B1-K700E-expressing mutant BM cells. Nature of the assay: ROS detection in SF3B1-K700E BM cells. Format: cell-based, mouse. The text has this:
ROS were detected using CM-H2DCFDA and Cell ROX® Deep Red Reagent according to manufacturer's protocol (Life Technologies).

In assay [3] the test system is SF3B1-K700E mutant-expressing BM cells. Nature of the assay: Nuclear β-catenin confocal microscopy in SF3B1-K700E BM cells. Format: cell-based, mouse. The conditions noted are these: 24 hours treatment. As to the method:
(§1) MDS and normal donor BM-MNC and mouse BM cells were stained with 30×FAM-FLICA® Caspase-1 solution at a ratio of 1:30 for 2 hours at 37° C. Cells were washed and cytospins were generated using a 5 minutes centrifugation at 450 rpm. Slides were fixed at 37° C. for 10 minutes using BD Cytofix Fixation Buffer (BD Biosciences), and subsequently washed using PBS. Cells were permeabilized with 0.1% Triton X-100/2% BSA in PBS for 15 minutes at room temperature. After washing with PBS, cells were blocked using 2% BSA in PBS for 30 minutes at room temperature, and washed again. Cells were incubated with the appropriate primary antibody overnight (1:400 for NLRP3, 1:20 for β-catenin) at 4° C. The next day, cells were washed with PBS and incubated with the appropriate secondary antibodies (1:500) for 1 hour at room temperature. After washing, cells were covered with ProLong Gold Antifade Reagent with DAPI prior to the addition of a coverslip (Life Technologies). Co-localization of a-caspase-1 with NLRP3 inflammasome complexes was assessed using a Leica TCS SP5 AOBS Laser Scanning Confocal microscope (Leica Microsystems). Analysis of the inflammasome images was performed with Definiens Developer 2.0 (Definiens AG). The software was used to segment cells based on brightness and size thresholds, followed by a watershed segmentation algorithm. […]

In a further assay the test system is normal BM-MNC. Nature of the assay: Nuclear β-catenin confocal microscopy in normal BM-MNC. Format: cell-based, human. The following applies: normal BM-MNC treated with S100A9 plus anti-oxidant. How it is done: as §1
The next assay concerns HepG2 cells. Put plainly: Epo elaboration by HepG2 cells (ELISA). The following applies: for reduction in Epo elaboration: HepG2, 10 ng/ml, 24 h exposure. Format: cell-based, human. As to the method: HepG2 cells, acquired from American Type Culture Collection (ATCC, Manassas, Va.), were grown in EMEM supplemented with 10% FBS and 1% penicillin/streptomycin solution. Cells were maintained at 37° C. under 5% CO2.
Quantitation of human S100A9/MRP14 in patient serum and supernatant of the HepG2 cell line was performed using CircuLex S100A9/MRP14 ELISA Kit (MBL, Nagano, Japan). Quantitative measurement of human TNFα and IL-1β from serum patients and supernatant of HepG2 cell line were performed using Human IL-1β ELISA Kit and Human TNFα ELISA Kit (Life Technologies, Carlsbad, Calif., USA). Quantitation of human Epo in patient serum and HepG2 cell line supernatant was performed using Human Erythropoietin ELISA kit (Stemcell Technologies, Vancouver, BC, Canada). All samples were performed in duplicate.

For a further assay, the system named is MDS patients. The following applies: MDS patients; cited from earlier work.

The values below come from patent US10697970B2, “S100A9 levels for predicting lenalidomide and erythropoietin responsiveness” (H. LEE MOFFITT CANCER CENTER AND RESEARCH INSTITUTE, INC., priority 2015, dated 2020).

As for `c1ccc2c(c1)[I+]c1ccccc1-2` [DPI], the “β-catenin activation in mutant cells” value in the assay with U2AF1-S34F mutant cells was “effectively reduced”. Also, the “inflammasome formation (ASC)” value in assay [1] is on record as “significantly reduced”. Besides, in assay [2], the “mean percentage of ROS+ cells and ROS MFI” value is “extinguished below the level of WT controls”. The “percentage of cells with elevated levels of nuclear β-catenin” value in assay [3] is “significantly reduced”.

As for `CC(=O)N[C@@H](CS)C(=O)O` [NAC, N-acetylcysteine], the “S100A9-triggered nuclear translocation of β-catenin” value in the assay with normal BM-MNC is listed as “abolished”. Besides, the “β-catenin activation in mutant cells” value in the assay on U2AF1-S34F mutant cells is listed as “effectively reduced”. Moreover, the “inflammasome formation (ASC)” value in assay [1] was “significantly reduced”. For the same compound, the “mean percentage of ROS+ cells and ROS MFI” value in assay [2] is “extinguished below the level of WT controls”. Also, the “percentage of cells with elevated levels of nuclear β-catenin” value in assay [3] was “significantly reduced”.

Consider “IL-1β: inflammatory cytokine interleukin-1β purchased from Sigma-Aldrich”, for which, in the assay on HepG2 cells, the “reduction in Epo elaboration” value was determined as 60%.

Consider TNFα, for which, in the assay with HepG2 cells, the “reduction in Epo elaboration” value worked out at 40%. In the assay with HepG2 cells (HepG2, vehicle control arm of lenalidomide experiment, S100A9 1 μg/ml or TNFα 10 ng/ml), the “suppression of Epo production by the inflammatory protein alone” value worked out at 30%.

On to “erythropoietin: erythropoietin treatment for anemia in MDS”, for which the “patients with MDS in whom treatment may improve anemia” value in the assay with MDS patients is 15-20%.
